This note sets out measurements from patent US7238701B2, “Substituted tetrahydrobenzothienopyrimidinamine compounds useful for treating hyper-proliferative disorders” (Bayer Pharmaceuticals Corporation, priority 2003, dated 2007).

Bounds are passed on as bounds.

Assay [1] deals with BT474 (human breast carcinoma). The assay is described as follows: In vitro tumor cell proliferation assay (Cell Titer-Glo luminescent cell viability), BT474 cells. It counts as cell-based. Conditions: BT-474, 72 hours drug exposure, 10% Fetal Bovine Serum, ATP luminescence readout, read-out: IC50 (50% inhibition of cell proliferation). The method, boiled down:
(§1)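 ATP luminescence (CellTiter-Glo) measured proliferation after 72 h compound exposure at 37 °C, giving IC50 values. Serial dilutions spanning 64 pM–100 μM in 0.1% DMSO were applied one day after plating 2.5×10^3 cells/well in RPMI plus 10% fetal bovine serum.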
(In general: Cellular ATP, detected with luciferase, serves as a proxy for viable cell number.)

The test system of assay [2] is A431cells (human epidermoid carcinoma). The assay is described as follows: In vitro tumor cell proliferation assay (Cell Titer-Glo luminescent cell viability), A431 cells. It counts as cell-based. Conditions: A-431, 72 h, 72 hours drug exposure, 10% Fetal Bovine Serum, ATP luminescence readout, read-out: IC50 (50% inhibition of cell proliferation). The method, boiled down:
as §1

Regarding `CN(C)CCNCCC1CCc2c(sc3ncnc(Nc4ccc(OCc5ccccn5)c(Cl)c4)c23)C1` (stereo not drawn) [Example 184, N′-[2-(4-{[3-chloro-4-(pyridin-2-ylmethoxy)phenyl]amino}-5,6,7,8-tetrahydro[1]benzothieno[2,3-d]pyrimidin-7-yl)ethyl]-N,N-dimethylethane-1,2-diamine], the IC50 in assay [1] and in assay [2] was < 5 µM each time.
As for `COCCNCCC1CCc2c(sc3ncnc(Nc4cccc(Br)c4)c23)C1` (stereo not drawn) [Example 86, N-(3-bromophenyl)-7-{2-[(2-methoxyethyl)amino]ethyl}-5,6,7,8-tetrahydro[1]benzothieno[2,3-d]pyrimidin-4-amine], the IC50 in assay [1] and in assay [2] was < 5 µM in each case.
`c1ccc(Cn2ncc3cc(Nc4ncnc5sc6c(c45)CCC(CCN4CCCC4)C6)ccc32)cc1` (stereo not drawn) [Example 208, N-(1-benzyl-1H-indazol-5-yl)-7-(2-pyrrolidin-1-ylethyl)-5,6,7,8-tetrahydro[1]benzothieno[2,3-d]pyrimidin-4-amine]: the IC50 in assay [1] and in assay [2] was < 5 µM each time.
Take `c1ccc(Cn2ncc3cc(Nc4ncnc5sc6c(c45)CCC(CCNCCN4CCCC4)C6)ccc32)cc1` (stereo not drawn) [Example 211, N-(1-benzyl-1H-indazol-5-yl)-7-{2-[(2-pyrrolidin-1-ylethyl)amino]ethyl}-5,6,7,8-tetrahydro[1]benzothieno[2,3-d]pyrimidin-4-amine]: the IC50 in assay [1] and in assay [2] was < 5 µM in each case.
Take `Cc1ccc(Oc2ccc(Nc3ncnc4sc5c(c34)CCC(CCNCCN(C)C)C5)cc2C)cn1` (stereo not drawn) [Example 230, N,N-dimethyl-N′-{2-[4-({3-methyl-4-[(6-methylpyridin-3-yl)oxy]phenyl}amino)-5,6,7,8-tetrahydro[1]benzothieno[2,3-d]pyrimidin-7-yl]ethyl}ethane-1,2-diamine]: the IC50 in assay [1] and in assay [2] was < 5 µM throughout.
For `O=C(CC1CCc2c(sc3ncnc(Nc4ccc(OCc5ccc(F)cc5)c(Cl)c4)c23)C1)N1CCOCC1` (stereo not drawn) [Example 144, N-{3-chloro-4-[(4-fluorobenzyl)oxy]phenyl}-7-(2-morpholin-4-yl-2-oxoethyl)-5,6,7,8-tetrahydro[1]benzothieno[2,3-d]pyrimidin-4-amine], the IC50 in assay [1] and in assay [2] was < 50 µM throughout.
`Clc1cc(Nc2ncnc3sc4c(c23)CCC(CCN2CCN(Cc3ccncc3)CC2)C4)ccc1OCc1ccccn1` (stereo not drawn) [Example 196, N-[3-chloro-4-(pyridin-2-ylmethoxy)phenyl]-7-{2-[4-(pyridin-4-ylmethyl)piperazin-1-yl]ethyl}-5,6,7,8-tetrahydro[1]benzothieno[2,3-d]pyrimidin-4-amine]: the IC50 in assay [1] and in assay [2] was < 5 µM throughout.
Take `COc1ccc(NCCC2CCc3c(sc4ncnc(Nc5ccc(F)c(Cl)c5)c34)C2)cc1` (stereo not drawn) [Example 76, N-(3-chloro-4-fluorophenyl)-7-{2-[(4-methoxyphenyl)amino]ethyl}-5,6,7,8-tetrahydro[1]benzothieno[2,3-d]pyrimidin-4-amine]: the IC50 in assay [1] and in assay [2] was < 50 µM each time.
On to `COCCC1CCc2c(sc3ncnc(Nc4cccc(Br)c4)c23)C1` (stereo not drawn) [Example 90, N-(3-bromophenyl)-7-(2-methoxyethyl)-5,6,7,8-tetrahydro[1]benzothieno[2,3-d]pyrimidin-4-amine], for which the IC50 in assay [1] and in assay [2] was < 50 µM throughout.
In the case of `OCCN(CCO)CCC1CCc2c(sc3ncnc(Nc4ccc(OCc5ccccn5)c(Cl)c4)c23)C1` (stereo not drawn) [Example 179, 2,2′-{[2-(4-{[3-chloro-4-(pyridin-2-ylmethoxy)phenyl]amino}-5,6,7,8-tetrahydro[1]benzothieno[2,3-d]pyrimidin-7-yl)ethyl]imino}diethanol], the IC50 in assay [1] and in assay [2] was < 5 µM throughout.
For `CN(C)CCCCNCCC1CCc2c(sc3ncnc(Nc4ccc5c(cnn5Cc5ccccc5)c4)c23)C1` (stereo not drawn) [Example 212, N′-(2-{4-[(1-benzyl-1H-indazol-5-yl)amino]-5,6,7,8-tetrahydro[1]benzothieno[2,3-d]pyrimidin-7-yl}ethyl)-N,N-dimethylbutane-1,4-diamine], the IC50 in assay [1] and in assay [2] was < 5 µM in each case.
On to `CCOC(=O)CC1CCc2c(sc3ncnc(Nc4ccc(OCc5cccc(F)c5)c(Cl)c4)c23)C1` (stereo not drawn) [Example 136, {4-[3-Chloro-4-(3-fluoro-benzyloxy)-phenylamino]-5,6,7,8-tetrahydro-benzo[4,5]thieno[2,3-d]pyrimidin-7-yl}-acetic acid ethyl ester], for which the IC50 in assay [1] was < 5 µM; in assay [2] it was < 50 µM.
The matching figures for `Brc1cccc(Nc2ncnc3sc4c(c23)CCC(CCN2CCCC2)C4)c1` (stereo not drawn) [Example 85, N-(3-bromophenyl)-7-[2-(1-pyrrolidinyl)ethyl]-5,6,7,8-tetrahydro[1]benzothieno[2,3-d]pyrimidin-4-amine]: < 5 µM and < 5 µM.
For the molecule `CS(=O)(=O)CCNCCC1CCc2c(sc3ncnc(Nc4ccc(OCc5cccc(F)c5)c(Cl)c4)c23)C1` (stereo not drawn) [Example 200, N-{3-chloro-4-[(3-fluorobenzyl)oxy]phenyl}-7-(2-{[2-(methylsulfonyl)ethyl]amino}ethyl)-5,6,7,8-tetrahydro[1]benzothieno[2,3-d]pyrimidin-4-amine], the IC50 in assay [1] and in assay [2] was < 5 µM in each case.
Take `O=C(CC1CCc2c(sc3ncnc(Nc4cccc(Br)c4)c23)C1)N1CCCCC1` (stereo not drawn) [Example 71, N-(3-bromophenyl)-7-[2-oxo-2-(1-piperidinyl)ethyl]-5,6,7,8-tetrahydro[1]benzothieno[2,3-d]pyrimidin-4-amine]: the IC50 in assay [1] and in assay [2] was < 50 µM in each case.
Regarding `Fc1cccc(COc2ccc(Nc3ncnc4sc5c(c34)CCC(CCN3CCN(Cc4ccncc4)CC3)C5)cc2Cl)c1` (stereo not drawn) [Example 171, N-{3-chloro-4-[(3-fluorobenzyl)oxy]phenyl}-7-{2-[4-(pyridin-4-ylmethyl)piperazin-1-yl]ethyl}-5,6,7,8-tetrahydro[1]benzothieno[2,3-d]pyrimidin-4-amine], the IC50 in assay [1] and in assay [2] was < 5 µM in each case.
For `COCCN1CCN(CCC2CCc3c(sc4ncnc(Nc5cccc(Br)c5)c34)C2)CC1` (stereo not drawn) [Example 93, N-(3-bromophenyl)-7-{2-[4-(2-methoxyethyl)-1-piperazinyl]ethyl}-5,6,7,8-tetrahydro[1]benzothieno[2,3-d]pyrimidin-4-amine], the IC50 in assay [1] and in assay [2] was < 5 µM in each case.
Regarding `CN(C)[C@@H]1CCN(CCC2CCc3c(sc4ncnc(Nc5ccc(OCc6cccc(F)c6)c(Cl)c5)c34)C2)C1` (stereo partly drawn) [Example 160], the IC50 in assay [1] and in assay [2] was < 5 µM throughout.
Take `OCCC1CCc2c(sc3ncnc(Nc4ccc5c(cnn5Cc5ccccc5)c4)c23)C1` (stereo not drawn) [Example 203, 2-[4-(1-Benzyl-1H-indazol-5-ylamino)-5,6,7,8-tetrahydro-benzo[4,5]thieno[2,3-d]pyrimidin-7-yl]-ethanol]: the IC50 in assay [1] and in assay [2] was < 5 µM throughout.
For the molecule `Cc1ccc(Oc2ccc(Nc3ncnc4sc5c(c34)CCC(CCNCCS(C)(=O)=O)C5)cc2C)cn1` (stereo not drawn) [Example 219, N-{3-methyl-4-[(6-methylpyridin-3-yl)oxy]phenyl}-7-(2-{[2-(methylsulfonyl)ethyl]amino}ethyl)-5,6,7,8-tetrahydro[1]benzothieno[2,3-d]pyrimidin-4-amine], the IC50 is < 5 µM in assay [1] and < 50 µM in assay [2].
`CN1CCN(CCC2CCc3c(sc4ncnc(Nc5cccc(Br)c5)c34)C2)CC1` (stereo not drawn) [Example 80, N-(3-bromophenyl)-7-[2-(4-methyl-1-piperazinyl)ethyl]-5,6,7,8-tetrahydro[1]benzothieno[2,3-d]pyrimidin-4-amine]: the IC50 in assay [1] and in assay [2] was < 5 µM throughout.
On to `COCCNCCC1CCc2c(sc3ncnc(Nc4ccc(OCc5cccc(F)c5)c(Cl)c4)c23)C1` (stereo not drawn) [Example 142, N-{3-chloro-4-[(3-fluorobenzyl)oxy]phenyl}-7-{2-[(2-methoxyethyl)amino]ethyl}-5,6,7,8-tetrahydro[1]benzothieno[2,3-d]pyrimidin-4-amine], for which the IC50 in assay [1] and in assay [2] was < 5 µM each time.
Take `C=CC1(O)CCc2c(sc3ncnc(Nc4ccc(F)c(Cl)c4)c23)C1` (stereo not drawn) [Example 201, 4-[(3-chloro-4-fluorophenyl)amino]-7-vinyl-5,6,7,8-tetrahydro[1]benzothieno[2,3-d]pyrimidin-7-ol]: the IC50 in assay [1] and in assay [2] was < 50 µM in each case.
As for `O[C@H]1CCN(CCC2CCc3c(sc4ncnc(Nc5ccc(OCc6cccc(F)c6)c(Cl)c5)c34)C2)C1` (stereo partly drawn) [Example 186, (3S)-1-{2-[4-({3-chloro-4-[(3-fluorobenzyl)oxy]phenyl}amino)-5,6,7,8-tetrahydro[1]benzothieno[2,3-d]pyrimidin-7-yl]ethyl}pyrrolidin-3-ol], the IC50 in assay [1] and in assay [2] was < 5 µM each time.
Regarding `COCCC1CCc2c(sc3ncnc(Nc4ccc(F)c(Cl)c4)c23)C1` (stereo not drawn) [Example 101, N-(3-chloro-4-fluorophenyl)-7-(2-methoxyethyl)-5,6,7,8-tetrahydro[1]benzothieno[2,3-d]pyrimidin-4-amine], the IC50 in assay [1] is < 5 µM; in assay [2], < 50 µM.
For `C=CCNC(=O)C1CCc2c(sc3ncnc(Nc4cccc(Br)c4)c23)C1` (stereo not drawn) [Example 56, N-allyl-4-[(3-bromophenyl)amino]-5,6,7,8-tetrahydro[1]benzothieno[2,3-d]pyrimidine-7-carboxamide], the IC50 in assay [1] and in assay [2] was < 50 µM in each case.
In the case of `Brc1cccc(Nc2ncnc3sc4c(c23)CCC(CCN2CCOCC2)C4)c1` (stereo not drawn) [Example 45, N-(3-bromophenyl)-7-[2-(4-morpholinyl)ethyl]-5,6,7,8-tetrahydro[1]benzothieno[2,3-d]pyrimidin-4-amine], the IC50 in assay [1] and in assay [2] was < 5 µM throughout.
